The target of one test is DNMT1 (Homo sapiens, UniProt P26358). The experiment in a line: DNMT1 biochemical activity, breaklight assay and/or SPA assay.
In test [1] the test system is erythroid progenitor cells (EPCs). The experiment in a line: Fetal hemoglobin (HbF) ELISA in day 7 erythroid progenitor cells.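 As to all read-outs here: for fetal hemoglobin induction normalized to vehicle-treated cells.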 Particulars: HbF ELISA, day 7 EPCs, 5 days; for EC50: Homo sapiens, Erythroid progenitor cell, read-out: EPC ELISA (pEC50 category) (converted). In kind it is cell-based, human. The method, boiled down:
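HbF induction was read by anti-HbF sandwich ELISA (HRP/TMB, OD450) on lysates and normalized to vehicle-treated cells. Cells were day 7 erythroid progenitors derived from human bone marrow CD34+ cells, seeded at 1,000/well with 3 U/mL rhEPO. Compound was given for 5 days at 37 °C at final concentrations […].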

Setting [2] is: binned activity in either the breaklight or the SPA assay, read-out: DNMT1 BioChemical (pIC50 category) (converted).
Where [3] appears, read: binned activity in either the breaklight or the SPA assay.
Where [4] appears, read: breaklight assay and/or SPA assay, repeated experimental runs, read-out: average pIC50 against DNMT1 (converted).

Each structure is given as a SMILES string. Several values for one entry are separate records, joined by “and”; a condition that tells them apart may be missing. Equal values may be shown once. Where a name gives a salt, the structure may show the parent alone. Read-outs that look alike come from different tables or passages of the source. Bounds are passed on as bounds.

Sequence of DNMT1 (P26358 whole entry, looked up): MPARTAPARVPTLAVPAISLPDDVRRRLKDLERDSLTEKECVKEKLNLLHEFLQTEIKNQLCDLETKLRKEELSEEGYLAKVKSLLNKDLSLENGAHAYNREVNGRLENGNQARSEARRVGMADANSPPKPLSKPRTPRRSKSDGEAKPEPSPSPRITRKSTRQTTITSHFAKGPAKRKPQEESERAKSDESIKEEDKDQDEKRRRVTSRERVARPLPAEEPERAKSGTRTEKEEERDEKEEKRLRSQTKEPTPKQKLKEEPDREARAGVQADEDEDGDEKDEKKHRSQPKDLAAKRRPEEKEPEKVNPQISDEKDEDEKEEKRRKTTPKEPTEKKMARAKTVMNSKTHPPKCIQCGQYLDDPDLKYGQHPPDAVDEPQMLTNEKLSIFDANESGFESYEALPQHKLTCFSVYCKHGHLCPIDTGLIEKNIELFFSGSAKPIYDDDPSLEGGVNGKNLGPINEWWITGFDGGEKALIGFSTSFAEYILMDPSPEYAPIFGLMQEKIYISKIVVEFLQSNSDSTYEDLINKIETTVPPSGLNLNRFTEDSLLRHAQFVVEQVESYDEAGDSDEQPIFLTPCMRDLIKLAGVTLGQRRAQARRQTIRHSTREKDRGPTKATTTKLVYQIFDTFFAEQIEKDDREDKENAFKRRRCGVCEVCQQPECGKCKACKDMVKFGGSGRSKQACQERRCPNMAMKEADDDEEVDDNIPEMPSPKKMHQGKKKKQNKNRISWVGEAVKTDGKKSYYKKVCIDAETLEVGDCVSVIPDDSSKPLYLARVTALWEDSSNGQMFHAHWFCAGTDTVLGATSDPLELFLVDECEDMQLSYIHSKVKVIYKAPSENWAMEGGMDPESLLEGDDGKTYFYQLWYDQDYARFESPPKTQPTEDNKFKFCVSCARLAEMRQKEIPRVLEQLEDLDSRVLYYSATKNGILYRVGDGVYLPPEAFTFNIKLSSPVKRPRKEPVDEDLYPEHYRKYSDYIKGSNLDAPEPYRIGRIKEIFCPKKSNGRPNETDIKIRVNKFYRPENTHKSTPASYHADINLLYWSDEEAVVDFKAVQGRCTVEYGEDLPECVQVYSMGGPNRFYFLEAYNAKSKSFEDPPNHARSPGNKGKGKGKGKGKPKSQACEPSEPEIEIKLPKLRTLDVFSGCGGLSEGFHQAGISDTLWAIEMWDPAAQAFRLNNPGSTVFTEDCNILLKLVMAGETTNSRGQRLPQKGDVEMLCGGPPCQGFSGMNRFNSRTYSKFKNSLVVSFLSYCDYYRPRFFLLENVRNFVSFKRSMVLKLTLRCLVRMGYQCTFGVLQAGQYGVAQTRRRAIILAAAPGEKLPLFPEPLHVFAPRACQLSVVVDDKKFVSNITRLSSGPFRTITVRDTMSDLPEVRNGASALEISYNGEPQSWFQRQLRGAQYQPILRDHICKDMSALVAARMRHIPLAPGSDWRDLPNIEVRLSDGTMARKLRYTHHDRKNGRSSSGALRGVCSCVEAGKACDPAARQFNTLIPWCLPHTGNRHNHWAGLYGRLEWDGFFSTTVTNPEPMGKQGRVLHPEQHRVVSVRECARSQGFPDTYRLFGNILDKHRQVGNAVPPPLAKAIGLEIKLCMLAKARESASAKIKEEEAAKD

In the case of `CCc1c(C#N)c(S[C@@H](C(N)=O)c2ccccc2)nc(N2CC[C@@H](O)C2)c1C#N` [Example 134, (R)-2-((3,5-Dicyano-4-ethyl-6-((R)-3-hydroxypyrrolidin-1-yl)pyridin-2-yl)thio)-2-phenylacetamide], on DNMT1 (setting [2]), the IC50 is 316 to 1000 nM. The EC50 in test [1] was 1000 to 31600 nM.

For the molecule `CCc1c(C#N)c(SCc2ccc(NS(C)(=O)=O)cc2)nc(N2CCCN(C)CC2)c1C#N` [Example 299, N-(4-(((3,5-Dicyano-4-ethyl-6-(4-methyl-1,4-diazepan-1-yl)pyridin-2-yl)thio)methyl)phenyl) methanesulfonamide], at DNMT1 (setting [3]), the “DNMT1 BioChemical (pIC50 category)” value is reported as “D (Category D: ≥6.5)”. The EC50 in test [1] is 316 to 1000 nM.

Take `CCc1c(C#N)c(SCc2ccc(CNC(=O)CCN)cc2)nc(N2CCCN(C)CC2)c1C#N` [Example 96, 3-Amino-N-(4-(((3,5-dicyano-4-ethyl-6-(4-methyl-1,4-diazepan-1-yl)pyridin-2-yl)thio)methyl)benzyl)propanamide]: the “DNMT1 BioChemical (pIC50 category)” value on DNMT1 (setting [3]) is “D (Category D: ≥6.5)”. The EC50 in test [1] was more than 31600 nM.

Turning to `CCc1c(C#N)c(SCc2ccc(N(C)S(C)(=O)=O)cc2)nc(N2CCC(NC(C)C)CC2)c1C#N` [Example 556, N-(4-(((3,5-dicyano-4-ethyl-6-(4-(isopropylamino)piperidin-1-yl)pyridin-2-yl)thio)methyl)phenyl)-N-methylmethanesulfonamide], on DNMT1 (setting [3]), the “DNMT1 BioChemical (pIC50 category)” value is recorded as “D (Category D: ≥6.5)”. In test [1], the EC50 was less than 316 nM.

Turning to `CCc1c(C#N)c(SCc2ccc(CNC(=O)CCN)cc2)nc(N(C)C)c1C#N` [Example 279, 3-Amino-N-(4-(((3,5-dicyano-6-(dimethylamino)-4-ethylpyridin-2-yl)thio)methyl)benzyl)propanamide], the IC50 at DNMT1 (setting [2]) was 316 to 1000 nM; on DNMT1 (setting [4]) it was ≥ 1000 nM and 1000 nM. In addition, the EC50 in test [1] is more than 31600 nM.

Turning to `CCc1c(C#N)c(SC(C(N)=O)c2ccccc2)nc(N2CCN(S(=O)(=O)c3ccccc3)CC2)c1C#N` (centres unmarked) [Example 159, 2-((3,5-Dicyano-4-ethyl-6-(4-(phenylsulfonyl)piperazin-1-yl)pyridin-2-yl)thio)-2-phenylacetamide], the IC50 on DNMT1 (setting [2]) is 1000 to 31600 nM. Also, in test [1], the EC50 is 316 to 1000 nM.

As to `CCc1c(C#N)c(SCc2ccc(CN)cc2)nc(N2CCCN(C)CC2)c1C#N` [Example 71, 2-((4-(Aminomethyl)benzyl)thio)-4-ethyl-6-(4-methyl-1,4-diazepan-1-yl)pyridine-3,5-dicarbonitrile, 2Hydrochloride], at DNMT1 (setting [3]), the “DNMT1 BioChemical (pIC50 category)” value is on record as “D (Category D: ≥6.5)”. The EC50 in test [1] is more than 31600 nM.

On to `CCc1c(C#N)c(SC(C(N)=O)c2cccc(F)n2)nc(N2CCCN(C)CC2)c1C#N` (centres unmarked) [Example 206, 2-((3,5-Dicyano-4-ethyl-6-(4-methyl-1,4-diazepan-1-yl)pyridin-2-yl)thio)-2-(6-fluoropyridin-2-yl)acetamide], for which the IC50 at DNMT1 (setting [2]) is 316 to 1000 nM. Also, the EC50 in test [1] was more than 31600 nM.

For the molecule `N#Cc1c(SC(C(N)=O)c2ccccc2)nc(N2CCN(CCCN)CC2)c(C#N)c1C1CC1` (centres unmarked) [Example 124, 2-((6-(4-(3-Aminopropyl)piperazin-1-yl)-3,5-dicyano-4-cyclopropylpyridin-2-yl)thio)-2-phenylacetamide], the IC50 at DNMT1 (setting [2]) is 316 to 1000 nM. In addition, the EC50 in test [1] is 1000 to 31600 nM.

For the molecule `CCc1c(C#N)c(SCc2ccc(NC(C)=O)cc2)nc(N(C)C)c1C#N` [Example 273], the IC50 at DNMT1 (setting [2]) is 316 to 1000 nM. Also, the EC50 in test [1] is 1000 to 31600 nM.

For `CCc1c(C#N)c(SC(C(N)=O)c2ccccc2)nc(N(C)C2CC3CCC(C2)N3)c1C#N` (centres unmarked) [Example 62, 2-((6-(8-azabicyclo[3.2.1]octan-3-yl(methyl)amino)-3,5-dicyano-4-ethylpyridin-2-yl)thio)-2-phenylacetamide], the IC50 on DNMT1 (DNMT1 BioChemical (pIC50 category), binned activity in either the breaklight or the SPA assay) lay within 316 to 1000 nM. Besides, in test [1], the EC50 was 316 to 1000 nM.

Turning to `CCc1c(C#N)c(SC(C(N)=O)c2ccc(F)cc2)nc(N2CCC(N3CCCC3)CC2)c1C#N` (centres unmarked) [Example 505, 2-((3,5-dicyano-4-ethyl-6-(4-(pyrrolidin-1-yl)piperidin-1-yl)pyridin-2-yl)thio)-2-(4-fluorophenyl)acetamide], the “DNMT1 BioChemical (pIC50 category)” value on DNMT1 (setting [3]) is given as “D (Category D: ≥6.5)”. In addition, the EC50 in test [1] is less than 316 nM.

On to `CCc1c(C#N)c(SCc2ccc(NC(=O)OC(C)(C)C)cc2)nc(N2CCCN(C)CC2)c1C#N` [Example 296, tert-Butyl (4-(((3,5-dicyano-4-ethyl-6-(4-methyl-1,4-diazepan-1-yl)pyridin-2-yl)thio)methyl)phenyl)carbamate], for which, at DNMT1 (setting [2]), the IC50 was 316 to 1000 nM. In addition, the EC50 in test [1] was more than 31600 nM.

Take `CCc1c(C#N)c(SC(C(N)=O)c2ccccc2)nc(N(C)CC(=O)N2C[C@@H](CO)[C@@H](O)C2)c1C#N` (stereo partly drawn) [Example 637, 2-((3,5-dicyano-4-ethyl-6-((2-((3R,4S)-3-hydroxy-4-(hydroxymethyl)pyrrolidin-1-yl)-2-oxoethyl)(methyl)amino)pyridin-2-yl)thio)-2-phenylacetamide]: the “DNMT1 BioChemical (pIC50 category)” value at DNMT1 (setting [3]) is “D (Category D: ≥6.5)”. In test [1], the EC50 was 1000 to 31600 nM.

For `N#Cc1c(SC(C(N)=O)c2ccccc2)nc(N2CCC[C@H](O)C2)c(C#N)c1C1CC1` (stereo partly drawn) [Example 33, 2-(3,5-dicyano-4-cyclopropyl-6-((S)-3-hydroxypiperidin-1-yl)pyridin-2-ylthio)-2-phenylacetamide], the IC50 on DNMT1 (setting [2]) was 316 to 1000 nM. Also, in test [1], the EC50 was 316 to 1000 nM.

Turning to `CCc1c(C#N)c(SCc2ccc(N(C)S(C)(=O)=O)cc2)nc(N2CCC(NC(=O)CN)CC2)c1C#N` [Example 590, 2-amino-N-(1-(3,5-dicyano-4-ethyl-6-((4-(N-methylmethylsulfonamido)benzyl)thio)pyridin-2-yl)piperidin-4-yl)acetamide], the “DNMT1 BioChemical (pIC50 category)” value at DNMT1 (setting [3]) is “D (Category D: ≥6.5)”. Besides, in test [1], the EC50 was 1000 to 31600 nM.

Take `CCOc1c(C#N)c(C)nc(SC(C(N)=O)c2ccccc2)c1C#N` (centres unmarked) [Example 342, 2-((3,5-Dicyano-4-ethoxy-6-methylpyridin-2-yl)thio)-2-phenylacetamide]: the IC50 at DNMT1 (setting [2]) was 316 to 1000 nM. Further, in test [1], the EC50 was more than 31600 nM.

For `CCc1c(C#N)c(SCc2ccc(N)cc2)nc(N2CCCN(C)CC2)c1C#N` [Example 297, 2-((4-Aminobenzyl)thio)-4-ethyl-6-(4-methyl-1,4-diazepan-1-yl)pyridine-3,5-dicarbonitrile], the IC50 at DNMT1 (setting [2]) was 316 to 1000 nM. Moreover, in test [1], the EC50 was more than 31600 nM.

As to `CCc1c(C#N)c(SCc2ccc(NC(C)=O)cc2)nc(N2CCCN(C)CC2)c1C#N` [Example 298, N-(4-(((3,5-Dicyano-4-ethyl-6-(4-methyl-1,4-diazepan-1-yl)pyridin-2-yl)thio)methyl)phenyl)acetamide], at DNMT1 (setting [3]), the “DNMT1 BioChemical (pIC50 category)” value is “D (Category D: ≥6.5)”. For the same molecule, in test [1], the EC50 is less than 316 nM.

Regarding `CCc1c(C#N)c(SC(C(N)=O)c2ccccc2)nc(N(C)C2CCN(C)C2)c1C#N` (centres unmarked) [Example 699, 2-((3,5-dicyano-4-ethyl-6-(methyl(1-methylpyrrolidin-3-yl)amino)pyridin-2-yl)thio)-2-phenylacetamide], the IC50 at DNMT1 (setting [2]) was 316 to 1000 nM. In test [1], the EC50 is 1000 to 31600 nM.

Turning to `CCc1c(C#N)c(SC(C(N)=O)c2ccccc2F)nc(N2CC[C@H](O)C2)c1C#N` (stereo partly drawn) [Example 682, 2-((3,5-dicyano-4-ethyl-6-((S)-3-hydroxypyrrolidin-1-yl)pyridin-2-yl)thio)-2-(2-fluorophenyl)acetamide], the “DNMT1 BioChemical (pIC50 category)” value at DNMT1 (setting [3]) is “D (Category D: ≥6.5)”. In addition, the EC50 in test [1] is 1000 to 31600 nM.

As for `CCc1c(C#N)c(SC(C(N)=O)c2ccccc2)nc(N2CCCN(C)CC2)c1C#N` (single isomer, unassigned; isomer 2) [Example 255, 2-((3,5-dicyano-4-ethyl-6-(4-methyl-1,4-diazepan-1-yl)pyridin-2-yl)thio)-2-phenylacetamide (Isomer 2)], the IC50 at DNMT1 (setting [2]) was 1000 to 31600 nM. Besides, the “EPC ELISA (pEC50 category)” value in test [1] is “C (Category C: 6.0 ≤ x < 6.5)”.

On to `N#Cc1c(SC(C(N)=O)c2ccccc2)nc(N2CCC(NCCO)CC2)c(C#N)c1C1CC1` (centres unmarked) [Example 657, 2-((3,5-dicyano-4-cyclopropyl-6-(4-((2-hydroxyethyl)amino)piperidin-1-yl)pyridin-2-yl)thio)-2-phenylacetamide], for which the “DNMT1 BioChemical (pIC50 category)” value at DNMT1 (setting [3]) is recorded as “D (Category D: ≥6.5)”. Moreover, the EC50 in test [1] was 1000 to 31600 nM.

With `CCc1c(C#N)c(SC(C(N)=O)c2ccccc2)nc(N2CCCC(CN(C)C)C2)c1C#N` (centres unmarked) [Example 565, 2-((3,5-dicyano-6-(3-((dimethylamino)methyl)piperidin-1-yl)-4-ethylpyridin-2-yl)thio)-2-phenylacetamide], the IC50 at DNMT1 (setting [2]) was less than 316 nM. Further, the EC50 in test [1] was less than 316 nM.

As to `CCc1c(C#N)c(SC(C(N)=O)c2ccccc2)nc(N2CCC(NCc3cccc(OC)n3)CC2)c1C#N` (centres unmarked) [Example 456, 2-((3,5-dicyano-4-ethyl-6-(4-(((6-methoxypyridin-2-yl)methyl)amino)piperidin-1-yl)pyridin-2-yl)thio)-2-phenylacetamide], the “DNMT1 BioChemical (pIC50 category)” value on DNMT1 (setting [3]) is reported as “D (Category D: ≥6.5)”. Besides, the EC50 in test [1] was less than 316 nM.

With `CCc1c(C#N)c(SCc2ccc(COC(C)=O)cc2)nc(N2CCCN(C)CC2)c1C#N` [Example 82, 4-(((3,5-Dicyano-4-ethyl-6-(4-methyl-1,4-diazepan-1-yl)pyridin-2-yl)thio)methyl)benzyl acetate], the IC50 at DNMT1 (setting [2]) and on DNMT1 (setting [4]) was 316 to 1000 nM each time. Further, the EC50 in test [1] was 1000 to 31600 nM.

As to `CCc1c(C)c(N2CCNCC2)nc(SC(C(N)=O)c2ccccc2)c1C#N` (centres unmarked) [Example 293, 2-((3-Cyano-4-ethyl-5-methyl-6-(piperazin-1-yl)pyridin-2-yl)thio)-2-phenylacetamide], the IC50 at DNMT1 (setting [2]) was 316 to 1000 nM. Moreover, the EC50 in test [1] is more than 31600 nM.

The record behind these values is US10975056B2 (GlaxoSmithKline Intellectual Property Development Limited, priority 2016, dated 2021).
